Reference: US11612586B2, “Indole regulation of antigen presenting cells” (THE TEXAS A&M UNIVERSITY SYSTEM, priority 2016, dated 2023)

Tests used:
TNF = TNF production in BMDCs, intracellular staining, flow cytometry; assay type: cell-based, mouse; details: 1 mM TDMM 24 hours, LPS (1 ug/ml) 4 hours
Description: Intracellular staining was performed to assess TNF production.
Intracellular staining was performed to assess TNF (FIG. 3A) and IL-12 (FIG. 3B) production.
(§1) Briefly, bone marrow was harvested from femurs of mice and cultured for 7 days in the presence of DC-skewing cytokines, GM-CSF and IL-4. […] The pro-inflammatory cytokines, IL-6 and IL-12, were specifically queried. […] Immune cells communicate largely through the production of soluble factors including cytokines, and DCs detect these signals and determine their effector functions accordingly.
The inventors performed a series of assays where bone marrow derived macrophages (BMDMs), bone marrow derived dendritic cells (BMDCs), and splenic dendritic cells (splenic DCs), were exposed to a series of TDMMs, including indole, indole-3-acetate (I3AT), 5-hydroxyindole (5HI), and indole-3-pyruvate (I3P), as well as indole-3-carbinol (I3C; a plant derived compound) to be used for a positive control (1 mM for 24 hours). The BMDMs and BMDCs were stimulated with LPS for 4 hours and assayed at day 7 for expression of various pro-inflammatory cytokines. In a similar assay, the BMDMs and BMDCs were stimulated with LPS or CpG, respectively, for 15 minutes and assayed for pAKT and pERK signaling, which is a reflection of pro-inflammatory response.

IL-6 = IL-6 production in BMDCs, intracellular staining, flow cytometry; assay type: cell-based, mouse; details: indole 24 hours (overnight), LPS 1 ug/ml 4 hours
Excerpt: as §1

CCR9 = CCR9 surface expression on BMDCs; assay type: cell-based, mouse; details: BMDCs cultured from day 3 with indole (1 mM) or retinoic acid (1 μM), day 7
Description: FIGS. 12A and 12B graphically illustrate that indole induces CCR9 and B220 on DCs. BMDCs were cultured in the presence of indole (1 mM), retinoic acid (1 μM), or DMF solvent control from day 3. On day 7, DCs were surface stained for expression of CCR9 and B220 and analyzed by flow cytometry. […] Mean of three independent experiments. * indicates p<0.05 for one-way ANOVA followed by Dunnett's post-test.
Dendritic cell subsets bear numerous surface antigens that regulate their migration and localization. Because indole is produced in the gut and appears to induce anti-inflammatory properties in DCs (as described above), it was hypothesized that indole might affect migration and retention in mucosal tissues. Thus, expression of the gut homing marker, chemokine receptor CCR9 was investigated. […] Retinoic acid (RA) was included as a positive control. RA is present in murine plasma at approximately […] and is predicted to exist at higher concentrations in tissue microenvironments in vivo. Thus, 1 uM was used as a conservative estimate of relevant physiological concentration. Indole's effect was even more profound than that of retinoic acid, a known inducer of mucosal homing markers on T cells (see, e.g., Iwata M, et al. (2004) Retinoic Acid Imprints Gut-Homing Specificity on T Cells. Immunity 21(4):527-538). […]

Thy1.2+CD4+ T cells = test: In vivo T cell activation by conditioned, OVA-loaded BMDCs transferred to B6-Thy1.1 mice; set-up: species or system mouse; details: mice receiving BMDCs conditioned with indole
Excerpt: FIGS. 17A-17C graphically illustrate that indole-conditioned DCs induce lower T cell activation overall but a greater proportion of Tregs in spleen compared to control. Naïve CD4+CD25− T cells from OT-II (Thy1.2) mice and OVA323-339-loaded BMDCs conditioned with indole, RA, or DMF were transferred to B6-Thy1.1 mice. After 7 days, tissues were harvested and stained for flow cytometric analysis. Data includes total expansion of Thy1.2+CD4+ T cells (FIG. 17A), percentage of Foxp3+CD4+ T cells of expanded T cells (FIG. 17B), and MFI of Foxp3+CD4+ T cells of expanded T cells (FIG. 17C). n=4 mice/group.
To address the functionality of indole DC-induced Tregs, an in vivo T cell activation system was employed. The pan T cell surface antigen, Thy1, has congenic alleles, Thy1.1 and Thy1.2, which can be used to differentiate donor and recipient T cells. Naïve CD4+CD25− T cells were purified from OT-II (Thy1.2) mice, then transferred them to recipient Thy1.1 mice. Indole-treated, OVA323-339 peptide-loaded BMDCs (Thy1.2) was subsequently transferred to the same recipient Thy1.1 mice. After five days, the recipient mice were sacrificed to assess activation of the transferred naïve T cells, which could only be activated by the transferred, peptide-loaded DCs and are identifiable by the Thy1.2 T cell surface antigen. Cellular populations from the spleen, mesenteric lymph nodes, and pooled distal lymph nodes (axial and inguinal), were examined limiting the analysis to CD4+ T cells bearing the Thy1.2 allele (donor-derived). Importantly, the DCs transferred without OVA peptide loading (negative control) induced virtually undetectable T cell activation. This confirms the specificity of the present model, ensuring that T cell activation in Thy1.2 T cells was solely due to interaction with our experimental BMDCs.
Naïve CD4+CD25− T cells from spleens and lymph nodes of OT-II mice were isolated by column purification as described above and resuspended in sterile Hanks Balanced Saline Solution (HBSS). […]

MHC-II and CD86 = details: BMDC, indole from day 0, 3, or 6, LPS stimulation
Description: Upon encountering and engulfing antigen, DCs upregulate their expression of maturation markers including MHC-II and the co-stimulatory molecule, CD86.
All primary cells were cultured in RPMI 1640 supplemented with 2-mercaptoethanol, gentamicin, penicillin, streptomycin, and 10% FCS (all from Life Technologies). Bone marrow-derived dendritic cells were cultured as previously described (Inaba K, et al. (1992) Generation of large numbers of dendritic cells from mouse bone marrow cultures supplemented with granulocyte/macrophage colony-stimulating factor. The Journal of Experimental Medicine 176(6):1693-1702) with slight modifications. Briefly, bone marrow cells were harvested from murine femurs and cultured in complete media supplemented with 10% FCS, 20 ng/ml GM-CSF (Peprotech), and 10 ng/ml IL-4 (Peprotech). Media was replenished at day 2, 4, and 6 of the 7 day culture.

IL-12 = IL-12 production in splenic CD11c+ DCs ex vivo; details: indole overnight, LPS or heat-killed S. typhimurium
Description: Cultures were then stained for CD11c and intracellular TNF, IL-6, and IL-12. Analysis was confined to CD11c+ DCs and maximal cytokine production was normalized to solvent control (DMF).
Production of pro-inflammatory cytokines in CD11c+ DCs was assessed via flow cytometry.
All primary cells were cultured in RPMI 1640 supplemented with 2-mercaptoethanol, gentamicin, penicillin, streptomycin, and 10% FCS (all from Life Technologies). […] Stimulation of dendritic cells at the given concentrations of LPS or heat-killed S. typhimurium were performed for 4 hours (DC2.4 and BMDCs) or 6 hours (primary splenic DCs) in the presence of GolgiPlug protein transport inhibitor (BD Biosciences) to measure cytokine production, or for 24 hours (co-stimulatory markers).

nitric oxide (NO) = test: Nitric oxide production in DC2.4 and BMDC (Griess reaction)
Description: The secretion of reactive oxygen species (ROS) and nitric oxide (NO) was investigated in DC2.4 and BMDC.
Supernatants were then incubated with Griess reagent for 10 minutes and then absorbance was measured at 550 nm.

SMILES: c1ccc2[nH]ccc2c1 [Indole, indole]
- TNF (TNF): ↓↓
- inhibition of IL-6 production (IL-6): ≥ 2 fold
- surface expression of CCR9 on conditioned DCs (CCR9): 34%
- Foxp3 mean fluorescence intensity of splenic Tregs (Thy1.2+CD4+ T cells): higher mean fluorescence intensity
- Tregs in the spleen of newly activated T cells compared to RA-DCs or DMF-DCs (Thy1.2+CD4+ T cells): two times more Tregs
- T cell expansion, less than controls (Thy1.2+CD4+ T cells; spleen, mesenteric and distal lymph nodes): more than 2 fold
- DC maturation (MHC-II and CD86 expression) (MHC-II and CD86): did not alter DC maturation
- inhibition of IL-12 production (IL-12): ≥ 2 fold
- secretion of nitric oxide (NO) (nitric oxide (NO)): intact
